Experimental data published in patent US12589122B2, “Methods and compositions for treating infectious, autoimmune, and allergic disease” (The University of Chicago, priority 2018, dated 2026).
“Also recorded” adds a separate entry of the source.

What was measured:
A. caccae_lah [1] = assay: In vitro fermentation in PY broth, monoculture growth (OD600); format: cell-based, Anaerostipes caccae; settings: 48 h; for Growth of A. caccae_lah / Growth of A. caccae_lah (OD600): monoculture; for Growth of A. caccae_lah: PY broth supplemented with 33 mM acetate and/or 40 mM lactate; for Growth of A. caccae_lah (OD600): PY broth supplemented with 10 mg/ml carbohydrates
Procedure: (§1) This method of preculture is used for all future in vitro fermentation experiments. Then 10 μl of preculture was transferred into 7 mL minimal peptone yeast (PY) broth alone or supplemented with 10 mg/ml of glucose, sucrose, lactose, cellobiose, or potato starch. All of these variations of PY were pre-reduced anaerobically prepared by Anaerobe Systems. Growth and butyrate production were measured after 48 h. […] Butyrate in solution is quantified by HPLC-UV-Vis as described in reference 61 and 62. […] These simple sugars are similar to those found in infant formula. […] These are the same formulas consumed by the healthy (Enfamil®) and CMA (Nutramigen®) infant donors and are also consumed by all mice colonized with these respective microbiomes. […] All groups were analyzed by one way ANOVA. *P<0.05, **P<0.01, ***P<0.001, ****P<0.0001 versus PY.
(§2) Other groups have shown that primary degraders, namely Bacteroides species, break down complex fibers and produce metabolites lactate and acetate which Clostridia species can then consume to produce butyrate (59). […] Growth and butyrate production were measured after 48 h. […] All groups were analyzed by one way ANOVA. *P<0.05, **P<0.01, ***P<0.001, ****P<0.0001 versus PY alone.

A. caccae_lah [2] = assay: In vitro fermentation in PY broth, monoculture butyrate production (HPLC-UV-Vis); format: cell-based, Anaerostipes caccae; settings: for lactate or acetate in the media at 48 h: A. caccae_lah monoculture, Nutramigen plus 40 mM lactate+33 mM acetate; for butyrate production by A. caccae_lah: monoculture, PY broth supplemented with 10 mg/ml carbohydrates, 48 h
Procedure: as §1, §2

A. caccae_lah [3] = assay: Antibiotic susceptibility by growth inhibition around antibiotic discs; format: cell-based, Anaerostipes caccae; settings: discs 10 μg ampicillin, 30 μg tetracycline; BHI agar, 37° C. anaerobic, six days
Procedure: Plates are incubated at 37° C. in anaerobic conditions for six days.

[4] = tested on: BLG plus CT sensitized mice, anaphylactic response to BLG challenge; format: in vivo, C3H/HeN mice
BLG-specific IgE = assay: Serum BLG-specific IgE ELISA after challenge; format: in vivo, mouse; settings: A. caccae monocolonized vs CMA colonized mice
Description: (§3) Food allergen sensitization and challenge. Protocols were adapted from reference 7. All mice were weaned onto a plant-based mouse chow (Purina Lab Diet® 5K67) at 3 weeks of age. GF mice received autoclaved sterile water. For mice colonized with feces from infant donors, or monocolonized with A. caccae, the drinking water was replaced by formula four hours prior to colonization. Mice colonized with healthy feces or A. caccae received Enfamil®; CMA colonized mice received Nutramigen® (both from Mead Johnson). On day 0, one week post weaning (GF) or colonization (healthy/A. caccae/CMA), all mice were fasted for 4 hours and then given a gavage of 200 mM sodium bicarbonate. 30 minutes later, mice were given 20 mg BLG (Sigma) plus 10 μg CT (List Biologicals). This protocol was repeated weekly for 5 weeks. For formula-fed mice, formula was replaced by sterile water for the week after the last sensitization. Prior to challenge on day 42, mice were fasted for 4 hours and given sodium bicarbonate by gavage. Two doses of 100 mg BLG each were then administered via intragastric gavage 30 minutes apart. Core body temperature was measured in a blinded fashion prior to allergen challenge and every 5 minutes after the first challenge until at least 30 minutes after the second challenge using a rectal probe (PhysiTemp). Serum was collected 1 hour after the second challenge to measure mMCPT-1 levels.

BLG-specific IgG1 = assay: Serum BLG-specific IgG1 ELISA after challenge; format: in vivo, mouse; settings: A. caccae monocolonized vs CMA colonized mice
Description: as §3

mMCPT-1 = assay: Serum mMCPT-1 ELISA 1 hour after second challenge; format: in vivo, mouse; settings: A. caccae monocolonized compared to CMA colonized mice
Description: as §3

IL-13 = assay: Splenocyte cytokine ELISA after BLG stimulation (IL-13); format: cell-based, mouse; settings: sacrificed 24 h post challenge, stimulated 72 h with BLG; A. caccae vs CMA colonized
Procedure: (§4) For cytokine analysis spleens were harvested 24 h post challenge from A. caccae or CMA colonized mice sensitized with BLG+CT for 5 weeks. Splenocytes were stimulated at a concentration of 2×10^6 cells/ml at 37° C., 10% CO2 with 10 mg/ml BLG (Sigma) in cDMEM (with 4% FCS (HyClone), 10 mM HEPES (Gibco), 100 U/ml Penicillin/Streptomycin (Gibco) and 55 μM 2-mercaptoethanol (Gibco). Cytokine concentrations in 72 hr culture supernatants were determined by ELISA for IL-13 and IL-4 (both from Invitrogen).

IL-4 = assay: Splenocyte cytokine ELISA after BLG stimulation (IL-4); format: cell-based, mouse; settings: sacrificed 24 h post challenge, stimulated 72 h with BLG; A. caccae vs CMA colonized
Procedure: as §4

[5] = tested on: Ror2, Fbp1, Tgfbr3, Acot12 and Me1 in ileal IECs; assay: qPCR gene expression in ileal IECs; format: in vivo, mouse; settings: A. caccae monocolonized compared to GF or CMA-colonized mice
Procedure: Epithelial cell isolation. As in sensitization experiments, mice were weaned at 3 weeks of age and placed on infant formula prior to colonization. Seven days after colonization, mice were euthanized and ileum was removed. For IEC isolation, tissues were cleaned and inverted as described in ref (43). IECs were collected by inflating inverted tissue in Cell Recovery Solution (Corning) every 5 minutes for 30 minutes. IEC samples were lysed in TRIZol (ThermoFisher) and RNA was extracted with PureLink RNA Mini Kit (Ambion) plus on-column DNAse treatment (PureLink DNAse Set, Ambion).
qPCR. Gene expression was measured by qPCR as described in reference 7. In brief, cDNA was prepared from RNA using the iScript cDNA Synthesis kit (BioRad). Gene expression was measured with PowerUp SYBR green master mix (Applied Biosystems) according to the manufacturer's instructions. Primers are listed in Supplementary Table 7 (20, 50-54). Expression of genes of interest was normalized to Hprt. Relative expression was measured using ΔΔCt centered around the geometric mean; GF mice were used as a reference.

## CC(=O)O [acetate]
A. caccae_lah [1]
  Growth of A. caccae_lah: significant growth
A. caccae_lah [2]
  lactate or acetate in the media at 48 h: no detectable

## CC1(C)S[C@@H]2[C@H](NC(=O)[C@H](N)c3ccccc3)C(=O)N2[C@H]1C(=O)O [ampicillin]
A. caccae_lah [3]
  antibiotic susceptibility of A. caccae_lah (zone of clearance): highly susceptible

## O=C[C@H](O)[C@@H](O)[C@H](O[C@@H]1O[C@H](CO)[C@@H](O)[C@H](O)[C@H]1O)[C@H](O)CO [cellobiose]
A. caccae_lah [2]
  butyrate production by A. caccae_lah: not able to produce significant butyrate

## CC(O)C(=O)O (centres unmarked) [lactate]
A. caccae_lah [1]
  Growth of A. caccae_lah: significant growth
A. caccae_lah [2]
  lactate or acetate in the media at 48 h: no detectable

## OC[C@H]1O[C@@H](O[C@H]2[C@H](O)[C@@H](O)C(O)O[C@@H]2CO)[C@H](O)[C@@H](O)[C@H]1O (some centres unmarked) [lactose]
A. caccae_lah [1]; minimal PY broth supplemented with 10 mg/ml carbohydrates
  fermentation by A. caccae_lah in monoculture: can ferment
A. caccae_lah [1]
  Growth of A. caccae_lah (OD600): grew abundantly
A. caccae_lah [2]
  butyrate production by A. caccae_lah: produced the most butyrate

## OC[C@H]1O[C@@](CO)(O[C@H]2O[C@H](CO)[C@@H](O)[C@H](O)[C@H]2O)[C@@H](O)[C@@H]1O [sucrose]
A. caccae_lah [1]
  Growth of A. caccae_lah (OD600): grew abundantly
A. caccae_lah [2]
  butyrate production by A. caccae_lah: produced the most butyrate

## Anaerostipes caccae [A. caccae]
[4]; A. caccae monocolonized compared to CMA colonized mice
  changes in core body temperature after BLG challenge: significantly reduced
[4]; BLG plus CT sensitized A. caccae monocolonized mice
  anaphylactic response to BLG challenge: protected against an anaphylactic response to BLG challenge; also recorded: protects against an allergic response to food
BLG-specific IgE
  serum BLG-specific IgE: reduced
BLG-specific IgG1
  serum BLG-specific IgG1: reduced
mMCPT-1
  serum concentrations of mMCPT-1: significantly reduced
IL-13
  IL-13 in culture supernatants of splenocytes: reduced
IL-4
  IL-4 in culture supernatants of splenocytes: reduced
[5]
  Fbp1 gene expression in ileal IECs (qPCR): significantly upregulated
  Tgfbr3 gene expression in ileal IECs (qPCR): significantly upregulated
